Measured values published in US6878522B2, “Methods for the identification of compounds useful for the treatment of disease states mediated by prostaglandin D2” (priority 2000, dated 2005).
“Also recorded” adds a separate entry of the source.

Experiments:
CRTH2 [1] = molecular target: T1, CRTH2 (Homo sapiens, UniProt Q9Y5Y4); assay: [Ca2+]i mobilization assay in 300-19 cells expressing CRTH2; assay type: cell-based; conditions: CRTH2 stable cell line (300-19 transfectants)
T1 construct: prolactin (prolac) signal peptide (N); expressed in transfected cells; host or cells: 300-19 cells (transformed murine pre-B lymphocytes)
T1 sequence (Q9Y5Y4 1-395): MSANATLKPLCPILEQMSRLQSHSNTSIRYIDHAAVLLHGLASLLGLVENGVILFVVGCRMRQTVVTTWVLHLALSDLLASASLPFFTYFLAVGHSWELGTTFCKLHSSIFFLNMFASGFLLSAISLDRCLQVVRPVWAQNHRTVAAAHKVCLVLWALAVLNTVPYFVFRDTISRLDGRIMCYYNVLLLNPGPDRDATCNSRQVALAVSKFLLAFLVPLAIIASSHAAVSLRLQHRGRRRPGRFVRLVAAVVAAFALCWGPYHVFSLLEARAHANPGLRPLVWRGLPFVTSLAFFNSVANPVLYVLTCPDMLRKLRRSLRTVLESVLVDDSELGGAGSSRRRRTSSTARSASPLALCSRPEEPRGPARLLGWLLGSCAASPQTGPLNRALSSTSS
Experimental: The ratio of fluorescence produced by the calcium-bound dye to that produce by the unbound dye is used to estimate the intracellular calcium concentration. In one embodiment, for example, the following method can be used. Cells that express CRTH2 are collected, and resuspended in fresh media at ˜2×10^5/ml the day before performing the calcium flux assay. Cells are incubated at 37° C. for not longer than 20-30 minutes, and then spun down and resuspended in 50 ml fresh PTI buffer (Hank's Buffer, pH 7.2-7.4; 10 mM Hepes; 1.6 mM CaCl2) containing Indo-1 AM, pre-warmed to 37° C., at a concentration of 10 million per ml. Cells are excited, and fluorescence is measured using a fluorimeter (Photon Technology Corporation, International). After the readout has stabilized, the time axis is reset, and PGD2 is added at a specific time point (e.g., 20 seconds). After response, the following reagents are added to the cuvette, to release and chelate total calcium, in the following order: 20 μl of 18% Triton X-100, 20 μl of 3M Tris, pH 8.5, and 20 μl of 0.5 M EGTA, pH 8.5. The experiment is repeated in the presence and the absence of a test compound.
Using 300-19 cells (transformed pre-B lymphocytes) expressing CRTH2, a number of mast cell and non-mast cell-derived mediators were screened in a [Ca^2+]i mobilization assay. […]

CRTH2 [2] = molecular target: T1, CRTH2; assay: Competition with 3H-PGD2 binding at the CRTH2 receptor (Examples 6-9); conditions: control, cold PGD2, 8 trials
Experimental: To directly determine the binding affinity of CRTH2 for PGD2, the following binding assay was used. Transfected and parental 300-19 cells were washed twice at room temperature with assay buffer, and resuspended at a concentration of 2×10^7 cells/ml. Using a 96-well U-bottom polypropylene plate (Costar, Corning Inc., Acton, Mass.), the assay was set up as follows: 50 μl of vehicle (0.3% DMSO in assay buffer, total wells) or of […] cold PGD2 (NS wells); 50 μl cells (2×10^7 cells/ml for 10^6 cells per well); 50 μl 6 nM [3H]-PGD2. The plate was allowed to incubate for 20 min at RT before centrifugation (2800 rpm, Sorval RT6000, 5 min, 4° C.). The plate was harvested (Packard Unifilter plate GF/C, previously soaked in 3% PEI for at least 1 hr) with cold assay buffer using a Packard Filtermate Cell Harvester (6×150 μl buffer wash per well). The filterplate was dried overnight. After the addition of 50 μl scintillation fluid (Packard Microscint 0), the plate was counted in a Packard Topcount scintillation counter (1 min per well). […] The solutions of labeled PGD2 and unlabeled “cold” PGD2 were prepared as follows: 10 μl of [^3H]-PGD2 (Amersham lot # TRK734 162 Ci/mmol, 0.1 Ci/ml in methanol: water: acetonitrile (3:2:1), 617 nM) per ml assay buffer was used to prepare a solution of [^3H]-PGD2 at a concentration of 6 nM (50 μl/well for final conc. of 2 nM); cold PGD2 (Biomol #PG-005, lot # P4653) was dissolved in DMSO for a stock of 10 mM (stored at −20° C.). The 10 mM stock was diluted 3:1000 to obtain a final concentration of […] (50 μl/well for final conc. of […]). Assay buffer: Hank's balanced saline supplemented with HEPES and sodium bicarbonate: 100 ml/L of 10× Hank's Balanced saline (with Ca^+2, Mg^+2); 10 ml/L of 1M HEPES; 4.7 ml/L of 7.5% Sodium Bicarbonate.
In the assay, the capacity of each D-ring compound to compete with binding of ^3H-PGD2 was measured at both the CRTH2 and DP receptors, and an IC50 value (in μM) was determined. […] The binding assay procedure of Example 1 was used. Preferably, the ratio of IC50 at CRTH2 to IC50 at DP is less than about twenty, and more preferably is […].

[3] = system: human activated T-lymphocytes; assay: Chemotaxis of human T lymphocytes (Boyden chamber); assay type: cell-based; conditions: anti-CD3 or anti-CD3 and anti-CD28 stimulated T cells
Experimental: (§1) The chemotactic response of human T lymphocytes to PGD2, murine MDC and murine mSDF was also assayed. Chemotaxis was determined using a 48-well Boyden chamber (Neuroprobe, Cabin John, Md.), and 3.0 μm polycarbonate filters. Cells were resuspended (3-3.5×10^6 cells/ml) in RPMI 1640 supplemented with 10 mM HEPES and 1 mg/ml bovine serum albumin (Sigma, St. Louis, Mo.), and placed into the upper wells of the chamber. The compound to be tested was placed in the lower wells. The chambers were incubated for 90-120 minutes at 37° C. in a humidified CO2 incubator. At the end of the incubation period, the number of migrating cells on the filter (expressed per high power field) were enumerated microscopically. […] In FIG. 4, the chemotactic response of human basophils to PGD2 and C5a is shown.

human basophils = assay: Chemotaxis of human basophils; assay type: cell-based
Experimental: as §1

In the case of `CCCCC[C@H](O)/C=C/[C@H]1C(=O)C[C@H](O)[C@@H]1C/C=C\CCCC(=O)O` [PGD2, prostaglandin D2], the EC50 (CRTH2 [1]) is reported as 15 nM, the IC50 (CRTH2 [2]) is reported as 10.7 nM and the “chemotactic response of human T lymphocytes” value [3] is reported as “respond specifically to PGD2; also recorded: responsive to PGD2”. The “chemotactic response of human basophils” value (human basophils) was “responsive to PGD2”.
